The source made the active and inactive calls. No cut-off for these calls is given here.

The IC50 is the concentration at which inhibition is half-maximal. A lower IC50 goes with inhibition by little substance.

The subject of assay [1] is NIH3T3. As to the kind of experiment: Inhibition of serum-stimulated growth of NIH3T3 cells transfected with HER14 after 3 days by SRB assay.
Assay [2] concerns NIH3T3. As to the kind of experiment: Inhibition of serum-stimulated growth of NIH3T3 cells after 3 days by SRB assay. Background: Sulforhodamine B stains cellular protein and so reports cell mass.
Assay [3] concerns DU-145. As to the kind of experiment: Growth inhibition of human DU145 cells after 3 days by SRB assay.
Assay [4] deals with Epidermal growth factor receptor (Homo sapiens, UniProt P00533). As to the kind of experiment: Inhibition of EGFR tyrosine kinase expressed in A431 cells.
Assay [5] has as its system DU-145. As to the kind of experiment: Induction of cell cycle arrest in human DU145 cells assessed as accumulation at G1 phase at 10 uM after 24 hrs by flow cytometry. Type of assay: functional, cell-based. (In general: Flow cytometry measures light scatter and fluorescence of single cells or particles in a stream.)
The test system of assay [6] is DU-145. As to the kind of experiment: Induction of DNA interstand cross links in human DU145 cells assessed as decrease in comet tail moment after irradiation by single cell gel electrophoresis assay. Type of assay: functional, cell-based.
In assay [7] the test system is DU-145. As to the kind of experiment: Induction of cell cycle arrest in human DU145 cells assessed as accumulation at mid-S phase at 10 uM after 24 hrs by flow cytometry. Type of assay: functional, cell-based.

Sequence of Epidermal growth factor receptor (P00533 whole entry): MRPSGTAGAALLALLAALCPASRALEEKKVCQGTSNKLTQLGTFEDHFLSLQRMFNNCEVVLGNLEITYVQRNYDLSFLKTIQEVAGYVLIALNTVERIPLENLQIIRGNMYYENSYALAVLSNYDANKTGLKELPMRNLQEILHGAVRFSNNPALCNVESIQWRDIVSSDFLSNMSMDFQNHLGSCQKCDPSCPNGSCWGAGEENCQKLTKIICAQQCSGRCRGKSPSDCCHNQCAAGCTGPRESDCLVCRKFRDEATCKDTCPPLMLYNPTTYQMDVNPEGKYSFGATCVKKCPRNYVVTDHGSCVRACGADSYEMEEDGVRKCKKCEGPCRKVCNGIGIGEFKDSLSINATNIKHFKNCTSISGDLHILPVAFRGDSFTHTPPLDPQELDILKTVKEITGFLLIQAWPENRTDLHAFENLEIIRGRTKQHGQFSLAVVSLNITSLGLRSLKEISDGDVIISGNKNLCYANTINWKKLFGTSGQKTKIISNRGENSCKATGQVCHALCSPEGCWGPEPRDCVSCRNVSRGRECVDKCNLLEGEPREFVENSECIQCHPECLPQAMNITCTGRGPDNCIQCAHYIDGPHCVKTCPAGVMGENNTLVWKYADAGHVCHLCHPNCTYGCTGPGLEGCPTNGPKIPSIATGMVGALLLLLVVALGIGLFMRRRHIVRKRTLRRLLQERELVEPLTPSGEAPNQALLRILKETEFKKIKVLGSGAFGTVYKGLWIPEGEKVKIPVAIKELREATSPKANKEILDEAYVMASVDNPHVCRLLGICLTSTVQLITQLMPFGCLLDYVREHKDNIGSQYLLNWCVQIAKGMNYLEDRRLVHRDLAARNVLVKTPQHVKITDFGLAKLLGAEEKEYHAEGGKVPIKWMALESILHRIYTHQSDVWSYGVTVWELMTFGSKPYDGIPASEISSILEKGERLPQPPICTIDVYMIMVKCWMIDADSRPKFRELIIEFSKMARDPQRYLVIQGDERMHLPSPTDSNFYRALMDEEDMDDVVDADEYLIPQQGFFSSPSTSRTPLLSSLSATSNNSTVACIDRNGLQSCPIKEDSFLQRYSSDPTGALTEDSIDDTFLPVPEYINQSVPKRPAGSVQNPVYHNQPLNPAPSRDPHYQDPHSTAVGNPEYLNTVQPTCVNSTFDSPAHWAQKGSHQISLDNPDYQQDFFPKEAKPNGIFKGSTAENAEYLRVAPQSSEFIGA

Regarding `ClCCN(CCNN=Nc1ccc2ncnc(Nc3cccc(Cl)c3)c2c1)c1ccc(Cl)cc1`, the IC50 stood at 12 µM in assay [1] (Mus musculus, NIH3T3, 72 h); 27.6 µM in assay [2] (Mus musculus, NIH3T3, 72 h); 4.7 µM in assay [3] (Homo sapiens, DU-145, 72 h); 2.2 µM in assay [4].
`CN(CCCl)CCN/N=N/c1ccc2ncnc(Nc3cccc(Cl)c3)c2c1`: the outcome in assay [5] and in assay [7] was Active. Moreover, the IC50 was 1.31 µM in assay [1] (Mus musculus, NIH3T3, 72 h); 27.2 µM in assay [2] (Mus musculus, NIH3T3, 72 h); 2.6 µM in assay [3] (Homo sapiens, DU-145, 72 h); 0.0044 µM in assay [4]. Moreover, in assay [6], the Activity entry was “Dose-dependent effect”.
`COc1ccc(N(CCCl)CCN/N=N/c2ccc3ncnc(Nc4cccc(Cl)c4)c3c2)cc1`: the IC50 in assay [1] (Mus musculus, NIH3T3, 72 h) is 6.22 µM; in assay [2] (Mus musculus, NIH3T3, 72 h), 9.07 µM; in assay [3] (Homo sapiens, DU-145, 72 h) it was 7.95 µM; in assay [4], 3.96 µM.
In the same order, the values of `COc1ccc(N(CCN=NNc2ccc3ncnc(Nc4cccc(Cl)c4)c3c2)CC(C)Cl)cc1` (stereo not given) are 5.75 µM, 21.5 µM, 11.4 µM and 0.97 µM.
In the same order, the values of `CN(C)CCN/N=N/c1ccc2ncnc(Nc3cccc(Cl)c3)c2c1` are 1.67 µM, 39.5 µM, 37.2 µM and 0.037 µM.
Regarding `Nc1ccc2ncnc(Nc3cccc(Cl)c3)c2c1`, the IC50 in assay [1] (nih3t3) stood at 3.19 µM; in assay [2] (nih3t3), 38.4 µM; in assay [3] (du-145), 34.1 µM.
`ClCCN(CCNN=Nc1ccc2ncnc(Nc3cccc(Cl)c3)c2c1)Cc1ccccc1`: the IC50 in assay [1] (Mus musculus, NIH3T3, 72 h) came out at 2.93 µM; in assay [2] (Mus musculus, NIH3T3, 72 h), 15.2 µM; in assay [3] (Homo sapiens, DU-145, 72 h) it was 10.6 µM; in assay [4] it was 0.071 µM.
